Results reported in paper PMC8352984, “Estrogen mediates sex differences in preoptic neuropeptide and pituitary hormone production in medaka” (Communications Biology, 2021).

Experiments:
Format in all cases: cell-based, medaka (Oryzias latipes)
[1] = tested on: luteinizing hormone β subunit (lhb) gene expression; assay: Ex vivo pituitary organ culture, real-time PCR of lhb; conditions: for lhb expression (in words): 10^-5 M, 24 h, 25 °C, vs vehicle;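 as to lhb expression (Fig. 8, lhb): relative expression with female control samples set to 1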
Source text: (§1) Fig. 8 Pacap and Vip have pleiotropic effects on the expression of anterior pituitary hormones. The effects of Pacap and Vip on gene expression levels of follicle-stimulating hormone β subunit (fshb), luteinizing hormone β subunit (lhb), thyroid-stimulating hormone β subunit (tshb), growth hormone (gh), somatolactin (sl), prolactin (prl), and pro-opiomelanocortin (pomc) were investigated by using male and female pituitaries cultured ex vivo (n = 6 per group, except male pituitary supplemented with Vip, where n = 5). Data were expressed as means with error bars representing standard error of the mean. Statistical differences were assessed by Dunnett’s post-hoc test. *p < 0.05; **p < 0.01; ***p < 0.001.
(§2) The pituitaries from five male or female fish were pooled for each sample and cultured ex vivo in Leibovitz’s L-15 medium supplemented with 5% charcoal-stripped fetal bovine serum as described elsewhere. The medium was further supplemented with 10^−5 M medaka Pacap or Vip, or vehicle alone. After 24 h of culture at 25 °C, the pituitaries were processed for total RNA extraction and cDNA synthesis by using the RNeasy Plus Micro Kit (Qiagen) and SuperScript VILO cDNA Synthesis Kit (Thermo Fisher Scientific), respectively. Real-time PCR was performed on the LightCycler 480 System II using LightCycler 480 SYBR Green I Master (Roche Diagnostics). The cycle conditions were: 95 °C for 5 min followed by 45 cycles of 95 °C for 10 sec, 60 °C for 10 sec and 72 °C for 10 sec. Melting curve analysis was performed as described above. Data were normalized to the geometric mean of three reference genes, actb, gapdh (encoding glyceraldehyde-3-phosphate dehydrogenase; National BioResource Project (NBRP) Medaka clone ID olbrno9_f15) and rpl13 (encoding ribosomal protein L13; NBRP Medaka clone ID olovano51_b24), according to Vandesompele et al.[63]. The primers used for real-time PCR are listed in Supplementary Table 3.

[2] = tested on: thyroid-stimulating hormone β subunit (tshb) gene expression; assay: Ex vivo pituitary organ culture, real-time PCR of tshb; conditions: for tshb expression (in words): 10^-5 M, 24 h, 25 °C, vs vehicle
Source text: as §1, §2

[3] = tested on: growth hormone (gh) gene expression; assay: Ex vivo pituitary organ culture, real-time PCR of gh; conditions: for gh expression (in words): 10^-5 M, 24 h, 25 °C, vs vehicle
Source text: as §1, §2

[4] = tested on: somatolactin (sl) gene expression; assay: Ex vivo pituitary organ culture, real-time PCR of sl; conditions: for sl expression (in words): 10^-5 M, 24 h, 25 °C, vs vehicle
Source text: as §1, §2

[5] = tested on: prolactin (prl) gene expression; assay: Ex vivo pituitary organ culture, real-time PCR of prl; conditions: for prl expression (in words): 10^-5 M, 24 h, 25 °C, vs vehicle
Source text: as §1, §2

[6] = tested on: pro-opiomelanocortin (pomc) gene expression; assay: Ex vivo pituitary organ culture, real-time PCR of pomc;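 as to pomc expression (Fig. 8, pomc): relative expression with female control samples set to 1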
Source text: as §1, §2

Substance: vasoactive intestinal peptide [Vip]
- lhb expression (in words) ([1]; female pituitaries): no significant effect
- lhb expression (Fig. 8, lhb) ([1]; female, replicate 1): 0.807
- lhb expression (Fig. 8, lhb) ([1]; female, replicate 2): 0.719
- lhb expression (Fig. 8, lhb) ([1]; female, replicate 3): 1.380
- lhb expression (Fig. 8, lhb) ([1]; female, replicate 4): 0.757
- lhb expression (Fig. 8, lhb) ([1]; female, replicate 5): 0.750
- lhb expression (Fig. 8, lhb) ([1]; female, replicate 6): 0.836
- lhb expression (in words) ([1]; male pituitaries): no significant effect
- lhb expression (Fig. 8, lhb) ([1]; male, replicate 1): 1.203
- lhb expression (Fig. 8, lhb) ([1]; male, replicate 2): 1.004
- lhb expression (Fig. 8, lhb) ([1]; male, replicate 3): 1.517
- lhb expression (Fig. 8, lhb) ([1]; male, replicate 5): 0.870
- lhb expression (Fig. 8, lhb) ([1]; male, replicate 6): 0.512
- tshb expression (in words) ([2]; female pituitaries): no significant effects
- tshb expression (Fig. 8, tshb) ([2]; female, replicate 1): 1.106
- tshb expression (Fig. 8, tshb) ([2]; female, replicate 2): 0.773
- tshb expression (Fig. 8, tshb) ([2]; female, replicate 3): 0.549
- tshb expression (Fig. 8, tshb) ([2]; female, replicate 4): 1.002
- tshb expression (Fig. 8, tshb) ([2]; female, replicate 5): 0.461
- tshb expression (Fig. 8, tshb) ([2]; female, replicate 6): 0.560
- tshb expression (in words) ([2]; male pituitaries): no significant effects
- tshb expression (Fig. 8, tshb) ([2]; male, replicate 1): 0.809
- tshb expression (Fig. 8, tshb) ([2]; male, replicate 2): 1.442
- tshb expression (Fig. 8, tshb) ([2]; male, replicate 3): 0.793
- tshb expression (Fig. 8, tshb) ([2]; male, replicate 5): 0.484
- tshb expression (Fig. 8, tshb) ([2]; male, replicate 6): 0.743
- gh expression (in words) ([3]; female pituitaries): no significant effects
- gh expression (Fig. 8, gh) ([3]; female, replicate 1): 0.831
- gh expression (Fig. 8, gh) ([3]; female, replicate 2): 0.891
- gh expression (Fig. 8, gh) ([3]; female, replicate 3): 0.819
- gh expression (Fig. 8, gh) ([3]; female, replicate 4): 0.622
- gh expression (Fig. 8, gh) ([3]; female, replicate 5): 0.476
- gh expression (Fig. 8, gh) ([3]; female, replicate 6): 1.314
- gh expression (in words) ([3]; male pituitaries): no significant effects
- gh expression (Fig. 8, gh) ([3]; male, replicate 1): 0.673
- gh expression (Fig. 8, gh) ([3]; male, replicate 2): 0.774
- gh expression (Fig. 8, gh) ([3]; male, replicate 3): 0.572
- gh expression (Fig. 8, gh) ([3]; male, replicate 5): 0.496
- gh expression (Fig. 8, gh) ([3]; male, replicate 6): 0.481
- sl expression (in words) ([4]; female pituitaries): substantially increased
- sl expression (Fig. 8, sl) ([4]; female, replicate 1): 2.764
- sl expression (Fig. 8, sl) ([4]; female, replicate 2): 2.848
- sl expression (Fig. 8, sl) ([4]; female, replicate 3): 3.893
- sl expression (Fig. 8, sl) ([4]; female, replicate 4): 3.276
- sl expression (Fig. 8, sl) ([4]; female, replicate 5): 2.230
- sl expression (Fig. 8, sl) ([4]; female, replicate 6): 4.010
- sl expression (in words) ([4]; male pituitaries): substantially increased
- sl expression (Fig. 8, sl) ([4]; male, replicate 1): 2.507
- sl expression (Fig. 8, sl) ([4]; male, replicate 2): 2.455
- sl expression (Fig. 8, sl) ([4]; male, replicate 3): 2.960
- sl expression (Fig. 8, sl) ([4]; male, replicate 5): 2.682
- sl expression (Fig. 8, sl) ([4]; male, replicate 6): 1.395
- prl expression (in words) ([5]; female pituitaries): substantially increased
- prl expression (Fig. 8, prl) ([5]; female, replicate 1): 4.014
- prl expression (Fig. 8, prl) ([5]; female, replicate 2): 5.400
- prl expression (Fig. 8, prl) ([5]; female, replicate 3): 2.330
- prl expression (Fig. 8, prl) ([5]; female, replicate 4): 5.283
- prl expression (Fig. 8, prl) ([5]; female, replicate 5): 3.539
- prl expression (Fig. 8, prl) ([5]; female, replicate 6): 6.475
- prl expression (in words) ([5]; male pituitaries): substantially increased
- prl expression (Fig. 8, prl) ([5]; male, replicate 1): 3.340
- prl expression (Fig. 8, prl) ([5]; male, replicate 2): 4.481
- prl expression (Fig. 8, prl) ([5]; male, replicate 3): 3.982
- prl expression (Fig. 8, prl) ([5]; male, replicate 5): 3.314
- prl expression (Fig. 8, prl) ([5]; male, replicate 6): 4.421
- pomc expression (Fig. 8, pomc) ([6]; female, replicate 1): 1.053
- pomc expression (Fig. 8, pomc) ([6]; female, replicate 2): 1.048
- pomc expression (Fig. 8, pomc) ([6]; female, replicate 3): 0.787
- pomc expression (Fig. 8, pomc) ([6]; female, replicate 4): 1.201
- pomc expression (Fig. 8, pomc) ([6]; female, replicate 5): 1.189
- pomc expression (Fig. 8, pomc) ([6]; female, replicate 6): 1.854
- pomc expression (in words) ([6]; male pituitaries, 10^-5 M, 24 h, 25 °C, vs vehicle): no significant effect
- pomc expression (Fig. 8, pomc) ([6]; male, replicate 1): 3.570
- pomc expression (Fig. 8, pomc) ([6]; male, replicate 2): 3.612
- pomc expression (Fig. 8, pomc) ([6]; male, replicate 3): 5.174
- pomc expression (Fig. 8, pomc) ([6]; male, replicate 5): 6.158
- pomc expression (Fig. 8, pomc) ([6]; male, replicate 6): 3.870
